# Data as given in PMC8286840, “Identifying SARS-CoV-2 antiviral compounds by screening for small molecule inhibitors of Nsp3 papain-like protease” (Biochemical Journal, 2021).
# Counter-ions that a name gives are not always drawn. Like-named read-outs stand apart in the source and are kept apart here.
# Experiments:
# [1] = target: T1, SARS-CoV-2 PLpro (nsp3 1564–1878) (Severe acute respiratory syndrome coronavirus 2, UniProt P0DTD1); assay: biochemical; design: FRET-quenched peptide (Pro3) cleavage by PLpro, 10 min pre-incubation, slope over 20 min, normalised to no-compound control; conditions: read-out: % of control remaining
# [2] = target: T1, SARS-CoV-2 PLpro (nsp3 1564–1878); assay: biochemical; design: FRET-quenched peptide (Pro3) cleavage by PLpro, 10 min pre-incubation, slope over 20 min, normalised to no-compound control; conditions: read-out: % of control remaining; remark: listed apart in the source
smiles,measurement,setting,value
C[N+]1(C)[C@@H]2CC[C@H]1C[C@@H](OC(=O)C(O)c1ccccc1)C2 (stereo partly shown) [Homatropine (methylbromide)],remaining activity at 3.75 µM,"[1]; Well no.=7379, high concentration screen",96%
same,remaining activity at 1.25 µM,"[2]; Well no.=7379, low concentration screen",94.7%
CC(C)(C)C(=O)C(Oc1ccc(Cl)cc1)n1ccnc1 (stereo not shown) [Climbazole],remaining activity at 3.75 µM,"[1]; Well no.=2269, high concentration screen",99.5%
same,remaining activity at 1.25 µM,"[2]; Well no.=2269, low concentration screen",98.8%
CCCCCCCCCCCCCCCCOCC(COP(=O)([O-])OCC[N+](C)(C)C)OC(C)=O (stereo not drawn) [Enantio-PAF C16],remaining activity at 3.75 µM,"[1]; Well no.=4455, high concentration screen",100%
same,remaining activity at 1.25 µM,"[2]; Well no.=4455, low concentration screen",98.4%
Cc1ccc(Cl)c(Nc2ccccc2C(=O)O)c1Cl [Meclofenamic acid sodium salt],remaining activity at 3.75 µM,"[1]; Well no.=5492, high concentration screen",106%
same,remaining activity at 1.25 µM,"[2]; Well no.=5492, low concentration screen",104%
O=C(c1ccc(F)cc1)C1CCN(CCn2c(=O)[nH]c3ccccc3c2=O)CC1 [Ketanserin],remaining activity at 3.75 µM,"[1]; Well no.=2106, high concentration screen",95.2%
same,remaining activity at 3.75 µM,"[1]; Well no.=6859, high concentration screen",99%
same,remaining activity at 1.25 µM,"[2]; Well no.=2106, low concentration screen",94.1%
same,remaining activity at 1.25 µM,"[2]; Well no.=6859, low concentration screen",101%
O=C(c1ccc(OCCCc2c[nH]cn2)cc1)C1CC1 [Ciproxifan],remaining activity at 3.75 µM,"[1]; Well no.=5316, high concentration screen",97%
same,remaining activity at 1.25 µM,"[2]; Well no.=5316, low concentration screen",101%
O=C(O)C1=CCCNC1 [Guvacine hydrochloride],remaining activity at 3.75 µM,"[1]; Well no.=460, high concentration screen",99.6%
same,remaining activity at 1.25 µM,"[2]; Well no.=460, low concentration screen",99.2%
CC(C)c1cc2c(c(O)c1O)[C@@]1(C(=O)O)CCCC(C)(C)[C@@H]1CC2 [Carnosic acid],remaining activity at 3.75 µM,"[1]; Well no.=4038, high concentration screen",104%
same,remaining activity at 1.25 µM,"[2]; Well no.=4038, low concentration screen",101%
CN(C)C(=O)CCSC(SCCC(=O)O)c1cccc(/C=C/c2ccc3ccc(Cl)cc3n2)c1 (stereo not shown) [MK-571 (sodium salt)],remaining activity at 3.75 µM,"[1]; Well no.=7859, high concentration screen",91.2%
same,remaining activity at 1.25 µM,"[2]; Well no.=7859, low concentration screen",91.6%
COc1ccc(CC(=O)O)cc1 [2-(4-Methoxyphenyl)acetic acid],remaining activity at 3.75 µM,"[1]; Well no.=6451, high concentration screen",104%
same,remaining activity at 1.25 µM,"[2]; Well no.=6451, low concentration screen",100%
Nc1nc2c(ncn2COC(CO)CO)c(=O)[nH]1 [Ganciclovir],remaining activity at 3.75 µM,"[1]; Well no.=667, high concentration screen",97.3%
same,remaining activity at 3.75 µM,"[1]; Well no.=2168, high concentration screen",99.3%
same,remaining activity at 3.75 µM,"[1]; Well no.=8062, high concentration screen",97.7%
same,remaining activity at 1.25 µM,"[2]; Well no.=667, low concentration screen",99.1%
same,remaining activity at 1.25 µM,"[2]; Well no.=2168, low concentration screen",97.3%
same,remaining activity at 1.25 µM,"[2]; Well no.=8062, low concentration screen",97.2%
C[C@H](NC(=O)CNC(=O)c1cccc(Cl)c1)c1ccccc1 [JNJ-63533054],remaining activity at 3.75 µM,"[1]; Well no.=8047, high concentration screen",102%
same,remaining activity at 1.25 µM,"[2]; Well no.=8047, low concentration screen",98.3%
O=C(O)/C=C/c1ccc(Cn2ccnc2)cc1 [Ozagrel HCl],remaining activity at 3.75 µM,"[1]; Well no.=4726, high concentration screen",101%
same,remaining activity at 1.25 µM,"[2]; Well no.=4726, low concentration screen",108%
CC(=O)Nc1ccc(NC(=S)NC(=O)c2ccc(C(C)(C)C)cc2)cc1 [p53 Activator (Tenovin-1)],remaining activity at 3.75 µM,"[1]; Well no.=2901, high concentration screen",96.4%
same,remaining activity at 1.25 µM,"[2]; Well no.=2901, low concentration screen",97.7%
CCCCCCCCC(=O)NCc1ccc(O)c(OC)c1 [N-Vanillylnonanamide],remaining activity at 3.75 µM,[1],96.6%
same,remaining activity at 1.25 µM,[2],96.7%
Nc1ccc(/C=C/c2cccc(C(=O)O)n2)cc1 [CB-7921220],remaining activity at 3.75 µM,"[1]; Well no.=7759, high concentration screen",95.7%
same,remaining activity at 1.25 µM,"[2]; Well no.=7759, low concentration screen",103%
O=C(c1ccccc1O)c1[nH]c(Cl)c(Cl)c1-n1c(C(=O)c2ccccc2O)cc(Cl)c1Cl [Maritoclax],remaining activity at 3.75 µM,"[1]; Well no.=6588, high concentration screen",99.2%
same,remaining activity at 1.25 µM,"[2]; Well no.=6588, low concentration screen",101%
"CCCCC[C@H](O)/C=C/[C@@H]1[C@@H](CC(=O)CCC(=O)O)[C@@H](O)C[C@@H]1O [2,3-Dinor-6-keto-prostaglandin F1a]",remaining activity at 3.75 µM,"[1]; Well no.=4527, high concentration screen",97.9%
same,remaining activity at 1.25 µM,"[2]; Well no.=4527, low concentration screen",93.5%
COc1ccc(NS(=O)(=O)c2sc3ccc(Cl)cc3c2C)cc1N1CCNCC1 [SB 271046 (Hydrochloride)],remaining activity at 3.75 µM,"[1]; Well no.=7863, high concentration screen",101%
same,remaining activity at 1.25 µM,"[2]; Well no.=7863, low concentration screen",102%
CCCCCCCCCCCCCC[C@@H](O)[C@@H](O)[C@@H](CO)NC(C)=O [C2 Phytoceramide],remaining activity at 3.75 µM,"[1]; Well no.=3531, high concentration screen",104%
same,remaining activity at 1.25 µM,"[2]; Well no.=3531, low concentration screen",99.2%
NCCCCCC(=O)O [6-Aminohexanoic acid],remaining activity at 3.75 µM,"[1]; Well no.=6, high concentration screen",102%
same,remaining activity at 1.25 µM,"[2]; Well no.=6, low concentration screen",101%
Nc1ccc(S(=O)(=O)Nc2ncccn2)cc1 [Sulfadiazine],remaining activity at 3.75 µM,"[1]; Well no.=2289, high concentration screen",102%
same,remaining activity at 3.75 µM,"[1]; Well no.=7494, high concentration screen",98.3%
same,remaining activity at 1.25 µM,"[2]; Well no.=2289, low concentration screen",99.4%
same,remaining activity at 1.25 µM,"[2]; Well no.=7494, low concentration screen",97.4%
Cc1csc(-c2nnc(Nc3ccc(Oc4ncccc4-c4ccnc(N)n4)cc3)c3ccccc23)c1 [AMG 900],remaining activity at 3.75 µM,"[1]; Well no.=5023, high concentration screen",100%
same,remaining activity at 1.25 µM,"[2]; Well no.=5023, low concentration screen",97.2%
CCCCCC(O)/C=C/C=O (racemic),remaining activity at 3.75 µM,"[1]; Well no.=4337, high concentration screen",102%
same,remaining activity at 1.25 µM,"[2]; Well no.=4337, low concentration screen",104%
Nc1c(S(=O)(=O)O)cc(Nc2ccc(Nc3nc(Cl)nc(Nc4cccc(S(=O)(=O)O)c4)n3)c(S(=O)(=O)O)c2)c2c1C(=O)c1ccccc1C2=O [Reactive Blue 2],remaining activity at 3.75 µM,[1],101%
same,remaining activity at 1.25 µM,[2],101%
CCCN1CCc2cccc3c2[C@H]1Cc1ccc(O)c(O)c1-3 [R(-)-Propylnorapomorphine hydrochloride],remaining activity at 3.75 µM,"[1]; Well no.=540, high concentration screen",108%
same,remaining activity at 1.25 µM,"[2]; Well no.=540, low concentration screen",104%
CCCCCN(C)CCC(O)(P(=O)(O)O)P(=O)(O)O [Ibandronate],remaining activity at 3.75 µM,"[1]; Well no.=1933, high concentration screen",102%
same,remaining activity at 1.25 µM,"[2]; Well no.=1933, low concentration screen",107%
"O=C(O)Cc1ccc(O)c(O)c1 [3,4-Dihydroxybenzeneacetic acid]",remaining activity at 3.75 µM,"[1]; Well no.=6355, high concentration screen",106%
same,remaining activity at 1.25 µM,"[2]; Well no.=6355, low concentration screen",104%
CC[C@H]1[C@@H](O)[C@@H]2[C@H](CC[C@]3(C)[C@@H]([C@H](C)CCC(=O)O)CC[C@@H]23)[C@@]2(C)CC[C@@H](O)C[C@@H]12 [Obeticholic Acid],remaining activity at 3.75 µM,"[1]; Well no.=8720, high concentration screen",93%
same,remaining activity at 1.25 µM,"[2]; Well no.=8720, low concentration screen",90.8%
CN1CC[C@@H](NC(=O)Nc2ccc(C#N)cc2)C[C@@H]1c1nc2ccccc2[nH]1 [PF-04449913 maleate salt],remaining activity at 3.75 µM,"[1]; Well no.=5703, high concentration screen",99.8%
same,remaining activity at 1.25 µM,"[2]; Well no.=5703, low concentration screen",104%
C[C@@H]1CC[C@@]2(NC1)O[C@H]1C[C@H]3[C@@H]4CC=C5C[C@@H](O)CC[C@]5(C)[C@H]4CC[C@]3(C)[C@H]1[C@@H]2C [Solasodine],remaining activity at 3.75 µM,"[1]; Well no.=3467, high concentration screen",95.3%
same,remaining activity at 1.25 µM,"[2]; Well no.=3467, low concentration screen",97.1%
O=S(=O)(O)c1ccc2c(N=Nc3ccc(S(=O)(=O)O)c4ccccc34)c(O)c(S(=O)(=O)O)cc2c1 [Amaranth],remaining activity at 3.75 µM,"[1]; Well no.=8462, high concentration screen",97.5%
same,remaining activity at 1.25 µM,"[2]; Well no.=8462, low concentration screen",98.1%
CC1(C)CCC2=C(O1)c1ccccc1C(=O)C2=O [_-Lapachone],remaining activity at 3.75 µM,"[1]; Well no.=6166, high concentration screen",79.2%
same,remaining activity at 1.25 µM,"[2]; Well no.=6166, low concentration screen",104%
"NC(=O)c1ccc(-c2nc(-c3ccc4c(c3)OCCO4)c(-c3ccccn3)[nH]2)cc1 [Casein Kinase I Inhibitor, D4476]",remaining activity at 3.75 µM,"[1]; Well no.=2372, high concentration screen",99.2%
same,remaining activity at 1.25 µM,"[2]; Well no.=2372, low concentration screen",102%
